Paper PMC6274026 (Molecules, 2016)
“And” between values parts separate entries of the source, which are not always exact repeats. Identical values can stand only once. Like-named read-outs stand apart in the source and are kept apart here.

How the values were obtained:
[1] = in vitro; details: human, Cytotoxic activity IC50, MCF-10A, 72 h, mean of three independent experiments ± S.D.
[2] = tested on: human protein tyrosyl-DNA phosphodiesterase 1 (TDP1); design: method as in ref 29 = [29]; 29. NCBI, National Center for Biotechnology Information PubChem BioAssay Database 2013 AID=686981 Available online: https://pubchem.ncbi.nlm.nih.gov/bioassay/686981 (accessed on 30 March 2016); details: qHTS, DT40 cell line, in words; cited from earlier work
[3] = tested on: MCF-7; assay: Clonogenicity (recovery) assay, 72 h post-treatment, SRB; details: for percentage of recovery: MCF-7, 0.08 µg/mL, 72 h post-treatment; for effect on proliferation and recovery after treatment: MCF-7, 10, 2, and 0.4 µg/mL, in words
[4] = tested on: anthrax lethal toxin; details: qHTS, ME-180 cells, in words; cited from earlier work
[5] = tested on: BT-549; assay: Clonogenicity (recovery) assay, 72 h post-treatment, SRB; details: for percentage of recovery: 72 h post-treatment; for effect on proliferation and recovery after treatment: in words
[6] = tested on: MDA-MB-231; details: for Selectivity index: IC50 MCF-10A / IC50 MDA-MB-231; for percentage of survival: 72 h; for Potency compared to control POD: MDA-MB-231, relative to POD; for Potency compared to control VP-16: MDA-MB-231, relative to VP-16; for IC50: read-out: Cytotoxic activity IC50, MDA-MB-231, 72 h, mean of three independent experiments ± S.D.
[7] = tested on: BT-549; details: for percentage of survival: 72 h; for Potency compared to control POD: BT-549, relative to POD; for Potency compared to control VP-16: BT-549, relative to VP-16; for selectivity according to the selectivity criteria (SI ≥ 10 selective): BT-549 vs MCF-10A, in words; for IC50: read-out: Cytotoxic activity IC50, BT-549, 72 h, mean of three independent experiments ± S.D.
[8] = tested on: MDA-MB-231; assay: Clonogenicity (recovery) assay, 72 h post-treatment, SRB; details: for percentage of recovery: 72 h post-treatment; for effect on proliferation and recovery after treatment: in words
[9] = tested on: MCF-10A; assay: as above
[10] = tested on: MCF-10A; details: for Potency compared to control POD: relative to POD; for Potency compared to control VP-16: relative to VP-16
[11] = tested on: MCF-7; details: for Selectivity index: IC50 MCF-10A / IC50 MCF-7; for percentage of survival: MCF-7, 0.08 µg/mL, 72 h; for Potency compared to control POD: MCF-7, relative to POD; for Potency compared to control VP-16: MCF-7, relative to VP-16; for IC50: read-out: Cytotoxic activity IC50, MCF-7, 72 h, mean of three independent experiments ± S.D.
[12] = tested on: Lewis lung carcinoma; design: method as in ref 31 = [31]; 31. NCBI, National Center for Biotechnology Information PubChem BioAssay Database 2007 AID=192, 256 and 270 Available online: https://pubchem.ncbi.nlm.nih.gov/bioassay/192, 256, and 270 (accessed on 3); details: subcutaneous inoculation, in words; cited from earlier work

SMILES	IC50 at 72 h [1] [nM]	percentage of recovery [3]	effect on proliferation and recovery after treatment [3]	Selectivity index [6]	Potency compared to control POD [6]	Potency compared to control VP-16 [6]	IC50 [6] [nM]	Potency compared to control POD [7]	Potency compared to control VP-16 [7]	selectivity according to the selectivity criteria (SI ≥ 10 selective) [7]	IC50 [7] [nM]	Potency compared to control POD [10]	Potency compared to control VP-16 [10]	Selectivity index [11]	percentage of survival [11]	Potency compared to control POD [11]	Potency compared to control VP-16 [11]	IC50 [11] [nM]	further results
COc1cc([C@@H]2c3cc4c(cc3[C@H](OC(C)=O)[C@H]3COC(=O)[C@H]23)OCO4)cc(OC)c1OC [Compound 2, acetylpodophyllotoxin]	318 ± 12	209% ± 12.4%	dose-dependently inhibited the proliferation and the recovery of cells	1.77	0.136	0.217	180 ± 3	0.465	14.1 and 14.151	selective compound	11 ± 4	0.062	0.147	2.42	121% ± 10.8%	0.135	0.942	132 ± 17	inhibitory activity against TDP1 [2]: inhibitory activity; effect on anthrax lethal toxin internalization [4]: interferes in the internalization process; percentage of recovery ([5]; BT-549, 0.4 µg/mL): around 114% ± 18.5%; percentage of recovery ([5]; BT-549, 0.8 µg/mL (same concentrations)): ~191% ± 27.1%; effect on proliferation and recovery after treatment ([5]; BT-549, 10 and 2 µg/mL): completely inhibited proliferation and prevented recovery; percentage of survival ([6]; MDA-MB-231, 0.08 µg/mL): 101% ± 5.7%; percentage of survival ([6]; MDA-MB-231, 0.4 µg/mL): 21% ± 0.6%; percentage of survival ([7]; BT-549, 0.08 µg/mL): 96% ± 5.5%; percentage of survival ([7]; BT-549, 0.4 µg/mL): 61% ± 10.6%; percentage of recovery ([8]; MDA-MB-231, 0.4 µg/mL): 36% ± 16.8%; percentage of recovery ([8]; MDA-MB-231, 0.8 µg/mL): 194% ± 14.7%; effect on proliferation and recovery after treatment ([8]; MDA-MB-231, 10 and 2 µg/mL): completely inhibited proliferation and prevented recovery; percentage of recovery ([9]; MCF-10A, 0.08 µg/mL, 72 h post-treatment): 85% ± 4.5%; effect on proliferation and recovery after treatment ([9]; MCF-10A, 10, 2, and 0.4 µg/mL, in words): dose-dependently inhibited the proliferation and the recovery of cells; percentage of survival ([10]; 0.08 µg/mL, 72 h): 61% ± 7.8%
COc1ccc([C@@H]2c3cc4c(cc3C[C@H]3COC(=O)[C@@H]32)OCO4)cc1OC [Compound 3, 5′-demethoxydeoxypodophyllotoxin]	90 ± 9	111% ± 13%	cytotoxicity with a lack of recovery	0.64	0.168	0.268	145 ± 45	0.252	7.6 and 7.661	non-selective compound	21 ± 3	0.214	0.507	2.33	55% ± 9.9%	0.449	3.124	40 ± 11	biological activity in Lewis lung carcinoma model [12]: did not show biological activities; effect on proliferation and recovery after treatment ([5]; BT-549, 10, 2, and 0.4 µg/mL): cytotoxicity with a lack of recovery; effect on proliferation and recovery after treatment ([8]; MDA-MB-231, 10, 2, and 0.4 µg/mL): cytotoxicity with a lack of recovery; effect on proliferation in the cytotoxicity and clonogenicity assays ([9]; MCF-10A, the four tested concentrations, in words): completely inhibited proliferation; IC50 ([10]; read-out: Cytotoxic activity IC50, 72 h, mean of three independent experiments ± S.D.): 92 ± 9 nM
